Reference: patent US6875748B2, “Compositions and methods for in vivo delivery of polynucleotide-based therapeutics” (Vical Incorporated, priority 2000, dated 2005)
Read-outs that look alike come from different tables or passages of the source.

How the values were obtained:
mouse quadriceps muscle [1] = assay: Luciferase expression in mouse quadriceps muscle after i.m. injection of plasmid VR1255 with auxiliary agents; conditions: 0.01% agent in saline versus saline alone, day 7
mouse quadriceps muscle [2] = assay: Hematocrit after i.m. injection of mouse erythropoietin plasmid (VR2901, VR2996); format: in vivo
Experimental: Hematocrits were measured by centrifugation of blood obtained from the retro-orbital cavity of mice. Blood samples were collected in 75 μl heparinized capillary tubes and analyzed using HemaSTAT II microhematocrit centrifuge (Separation Technology, Inc., Altamonte Springs, Fla.).
The mice were monitored over time for serum hematocrit levels, which correlate with the expression of erythropoeitin.
The mice were monitored over four weeks for serum hematocrit levels, which correlate with the expression of erythropoeitin.
The mice were monitored at days 0, 7, 14, 21, and 28 for serum hematocrit levels, which correlate with the expression of erythropoeitin.
The mice were monitored at days 7, 14, and 28 for serum hematocrit levels, which correlate with the expression of erythropoeitin. Control serum levels were measured before any injections.

mouse quadriceps muscle [3] = assay: Luciferase expression in mouse quadriceps muscle 7 days after i.m. injection of plasmid VR1223 in salt solutions; format: in vivo; design: lux: unit: ng/muscle; conditions: for luciferase expression compared with saline (words): 150 mM solutions; for lux: 7-day luciferase expression, VR1223
mouse lung = assay: Luciferase expression in mouse lung 3 days after intranasal instillation of VR1223 complexed with GAP-DLRIE/DOPE; format: in vivo; conditions: 132 μg VR1223 + GAP-DLRIE/DOPE, day 3
[4] = Osmolarity of the salt solutions; format: physicochemical; conditions: 150 mM unless otherwise indicated
pH of the salt solutions = format: physicochemical
[5] = 50 μg VR1223 in 50 μl, salts at 150 mM, day 7
[6] = salts at 150 mM, relative to saline, day 7
[7] = 150 mM unless otherwise indicated

octylphenoxypolyethoxyethanol [NONIDET NP-40]
increase of luciferase expression in 154 mM sodium chloride (mouse quadriceps muscle [1]): three-fold
hematocrit versus 150 mM sodium phosphate alone (mouse quadriceps muscle [2]; 5 μg VR2901, 0.01% agent, all time points): higher hematocrit levels
rise in hematocrit (mouse quadriceps muscle [2]; 5 μg VR2901, after day 14): 10%

O [Double-distilled water, reference compound]
ng Lux per Muscle (mouse quadriceps muscle [3]; 50 μg VR1223 in 50 μl of the solution, day 7): 4 ng per Muscle
ng luciferase per muscle (mouse quadriceps muscle [3]; 50 μg VR1223 in 50 μl, day 7): 4 ng luciferase per muscle
luciferase expression, times lower than saline (mouse quadriceps muscle [3]; VR1223, day 7): 25 times
Fold Saline (mouse quadriceps muscle [3]; luciferase expression relative to saline, day 7): 0.03 Fold
luciferase expression in lung (mouse lung): 0.94 ng lux/lung

O=S(=O)([O-])[O-].[Na+].[Na+] [Sodium Sulfate]
Osm [4]: 349 mmol/kg
ng Lux/Muscle (mouse quadriceps muscle [3]; [5]): 312 ng/Muscle
luciferase expression compared with saline (words) (mouse quadriceps muscle [3]; VR1223, day 7): increased luciferase expression compared with saline
lux (mouse quadriceps muscle [3]; Table III-A): 312
lux (mouse quadriceps muscle [3]; Table III-B): 312
luciferase expression, fold over saline (mouse quadriceps muscle [3]; VR1223, day 7): 2.6 fold
Fold Saline (mouse quadriceps muscle [3]; [6]): 2.6 Fold
pH (pH of the salt solutions): 5.5
pH (pH of the salt solutions; [7]): 5.5

CC(=O)[O-].[Na+] [Sodium Acetate]
Osm [4]: 271 mmol/kg
ng Lux/Muscle (mouse quadriceps muscle [3]; [5]): 498 ng/Muscle
luciferase expression compared with saline (words) (mouse quadriceps muscle [3]; VR1223, day 7): increased luciferase expression compared with saline
lux (mouse quadriceps muscle [3]; Table III-A): 498
lux (mouse quadriceps muscle [3]; Table III-B): 498
Fold Saline (mouse quadriceps muscle [3]; [6]): 4.1 Fold
pH (pH of the salt solutions; [7]): 6.5
